The values that follow come from paper PMC6151529, “Design, Synthesis and Biological Evaluation of N,N-Substituted Amine Derivatives as Cholesteryl Ester Transfer Protein Inhibitors” (Molecules : A Journal of Synthetic Chemistry and Natural …, 2017).

One test deals with T1, CETP (Homo sapiens, UniProt P11597).
T1 construct: purchased Roar, New York, NY, USA RB-RPAK
T1 sequence (P11597 18-493): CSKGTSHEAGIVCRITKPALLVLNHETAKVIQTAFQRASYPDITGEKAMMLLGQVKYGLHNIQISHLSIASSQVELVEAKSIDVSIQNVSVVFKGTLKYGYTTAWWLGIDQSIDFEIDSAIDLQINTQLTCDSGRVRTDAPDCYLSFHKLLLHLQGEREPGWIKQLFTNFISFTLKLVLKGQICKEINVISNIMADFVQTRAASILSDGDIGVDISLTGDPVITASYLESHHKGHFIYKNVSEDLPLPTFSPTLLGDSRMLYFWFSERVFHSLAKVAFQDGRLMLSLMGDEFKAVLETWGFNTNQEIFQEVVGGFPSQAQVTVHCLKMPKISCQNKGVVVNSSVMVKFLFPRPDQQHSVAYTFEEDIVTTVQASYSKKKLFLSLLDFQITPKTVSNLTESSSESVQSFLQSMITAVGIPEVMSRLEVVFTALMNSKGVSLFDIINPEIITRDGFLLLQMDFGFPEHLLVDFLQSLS
As to the kind of experiment: CETP inhibitory activity, BODIPY-CE fluorescence assay (CETP RP Activity Assay Kit). In kind it is biochemical. Particulars: for IC50: read-out: IC50 (CETP inhibition); for CETP inhibition (in words): BODIPY-CE fluorescence assay. On the procedure: All tested compounds were dissolved in 100% DMSO, making sure the compound was dissolved totally. The solution was vibrated hard on an oscillator for more than 30 s and then stored in a nitrogen cabinet. The stock solutions (10 mM) were diluted with DMSO for an 8-point titration (1:5 serial dilutions) in a 96-well dilution plate. […] Compounds were tested at eight concentrations, and the fluorescence intensity were measured using a fluorometer (ExEm = 465/535 nm). The IC50 was determined from a curve fit of the data with each concentration tested three times.

The test system of another test is HDL-C levels. Particulars: clinical, cited from earlier work.
A further test deals with LDL-C levels. Particulars: clinical, cited from earlier work.

One may read the IC50 as the point on the concentration scale where inhibition reaches its midpoint. As for `CCOC(=O)CCCn1nnc(N(CC2=C(c3cc(C(C)C)ccc3OC)CCC(C)(C)C2)Cc2cc(C(F)(F)F)cc(C(F)(F)F)c2)n1` [Compound 14, N-(3,5-Bis(trifluoromethyl)benzyl)-N-((2-(5-isopropyl-2-methoxyphenyl)-5,5-dimethylcyclohex-1-enyl)-methyl)-2H-tetrazol-5-amine-2-butyric acid ethyl ester], on CETP, the concentration for half-maximal inhibition (IC50) is more than 50 µM.

With `COc1ccc(C(C)C)cc1C1=C(CN(Cc2cc(C(F)(F)F)cc(C(F)(F)F)c2)C2CCN(C(=O)OC3CCOCC3)CC2)CC(C)(C)CC1` [Compound 34, N-(3,5-Bis(trifluoromethyl)benzyl)-N-((2-(5-isopropyl-2-methoxyphenyl)-5,5-dimethylcyclohex-1-enyl)-methyl)piperidin-4-amine-1-methanoic acid tetrahydro-2H-pyran-4-ol ester], the IC50 at CETP was more than 50 µM.

As to `COc1ccc(C(C)C)cc1C1=C(CN(Cc2cc(C(F)(F)F)cc(C(F)(F)F)c2)c2nn[nH]n2)CC(C)(C)CC1` [Compound 12, N-(3,5-Bis(trifluoromethyl)benzyl)-N-((2-(5-isopropyl-2-methoxyphenyl)-5,5-dimethylcyclohex-1-enyl)-methyl)-2H-tetrazol-5-amine], the IC50 on CETP is 2.84 ± 0.04 µM.

For the compound `COc1ccc(C(C)C)cc1C1=C(CN(Cc2ccc(OC(F)(F)F)cc2)c2nnn(C)n2)CC(C)(C)CC1` [Compound 44, N-((2-(5-Isopropyl-2-methoxyphenyl)-5,5-dimethylcyclohex-1-enyl)methyl)-2-methyl-N-(4-(trifluoro-methoxy)benzyl)-2H-tetrazol-5-amine], at CETP, the “CETP inhibition (in words)” value was “no CETP inhibition” and the half-inhibitory concentration (IC50) is more than 50 µM.

As to `COc1ccc(C(C)C)cc1C1=C(CN(Cc2cc(C(F)(F)F)cc(C(F)(F)F)c2)c2nnn(CCCCO)n2)CC(C)(C)CC1` [Compound 20], the 50% inhibitory concentration (IC50) on CETP is 5.76 ± 0.03 µM.

In the case of `COc1ccc(C(C)C)cc1C1=C(CN(Cc2cc(C(F)(F)F)cc(C(F)(F)F)c2)C2CCN(CCO)CC2)CC(C)(C)CC1` [Compound 32, N-(3,5-Bis(trifluoromethyl)benzyl)-N-((2-(5-isopropyl-2-methoxyphenyl)-5,5-dimethylcyclohex-1-enyl)-methyl)piperidin-4-amine-1-ethyl alcohol], the IC50 on CETP is more than 50 µM.

`COc1ccc(C(C)C)cc1C1=C(CN(Cc2ccc(F)cc2)c2nnn(C)n2)CC(C)(C)CC1` [Compound 42, N-(4-Fluorobenzyl)-N-((2-(5-isopropyl-2-methoxyphenyl)-5,5-dimethylcyclohex-1-enyl)methyl)-2-methyl-2H-tetrazol-5-amine]: at CETP, the “CETP inhibition (in words)” value was “no CETP inhibition” and the IC50 is more than 50 µM.

In the case of `Cc1cc(C)c2c(c1)[C@@H](N(Cc1cc(C(F)(F)F)cc(C(F)(F)F)c1)c1nnn(C)n1)CCCN2C[C@H]1CC[C@H](C(=O)O)CC1` [Evacetrapib], in the test with HDL-C levels, the “raising of HDL-C levels” value is listed as “more than 129%”. The “decrease of LDL-C” value in the test with LDL-C levels was “up to 36%”.

As for `CCOC(=O)N1CC(N(CC2=C(c3cc(C(C)C)ccc3OC)CCC(C)(C)C2)Cc2cc(C(F)(F)F)cc(C(F)(F)F)c2)C1` [Compound 35, N-(3,5-Bis(trifluoromethyl)benzyl)-N-((5′-isopropyl-2′-methoxy-4,4-dimethyl-3,4,5,6-tetrahydro-[1,1′-biphenyl]-2-yl)methyl)azetidin-3-amine-1-methanoic acid ethyl ester], on CETP, the half-inhibitory concentration (IC50) is more than 50 µM.

For `COc1ccc(C(C)C)cc1C1=C(CN(Cc2cc(C(F)(F)F)cc(C(F)(F)F)c2)c2nnn(CCCC(=O)O)n2)CC(C)(C)CC1` [Compound 18, N-(3,5-Bis(trifluoromethyl)benzyl)-N-((2-(5-isopropyl-2-methoxyphenyl)-5,5-dimethylcyclohex-1-enyl)-methyl)-2H-tetrazol-5-amine-2-butyric acid], on CETP, the half-inhibitory concentration (IC50) came to 1.6 ± 0.02 µM.

Turning to `COc1ccc(C(C)C)cc1C1=C(CN(Cc2cc(C(F)(F)F)cc(C(F)(F)F)c2)C2CN(C(=O)OC3CCOCC3)C2)CC(C)(C)CC1` [Compound 37, N-(3,5-Bis(trifluoromethyl)benzyl)-N-((5′-isopropyl-2′-methoxy-4,4-dimethyl-3,4,5,6-tetrahydro-[1,1′-biphenyl]-2-yl)methyl)azetidin-3-amine-1-methanoic acid tetrahydro-2H-pyran-4-ol ester], the IC50 at CETP is more than 50 µM.

Take `COc1ccc(C(C)C)cc1C1=C(CN(Cc2cc(C(F)(F)F)cc(C(F)(F)F)c2)c2nnn(CCN)n2)CC(C)(C)CC1` [Compound 15, 2-(2-Aminoethyl)-N-(3,5-Bis(trifluoromethyl)benzyl)-N-((2-(5-isopropyl-2-methoxyphenyl)-5,5-dimethyl-cyclohex-1-enyl)methyl)-2H-tetrazol-5-amine]: on CETP, the IC50 stood at 1.92 ± 0.1 µM.

For `COc1ccc(C(C)C)cc1C1=C(CN(Cc2cc(C(F)(F)F)cc(C(F)(F)F)c2)C2CN(C(=O)OC(C)C)C2)CC(C)(C)CC1` [Compound 36, N-(3,5-Bis(trifluoromethyl)benzyl)-N-((5′-isopropyl-2′-methoxy-4,4-dimethyl-3,4,5,6-tetrahydro-[1,1′-biphenyl]-2-yl)methyl)azetidin-3-amine-1-methanoic acid isopropyl ester], on CETP, the IC50 was more than 50 µM.

As to `COc1ccc(C(C)C)cc1C1=C(CN(Cc2cc(C(F)(F)F)cc(C(F)(F)F)c2)c2noc(C)n2)CC(C)(C)CC1` [Compound 22, N-(3,5-Bis(trifluoromethyl)benzyl)-N-((2-(5-isopropyl-2-methoxyphenyl)-5,5-dimethylcyclohex-1-enyl)-methyl)-5-methyl-1,2,4-oxadiazol-3-amine], the IC50 on CETP was 0.72 ± 0.06 µM.

In the case of `COc1cc(F)c(C(C)C)cc1-c1ccc(C(F)(F)F)cc1CN1C(=O)O[C@H](c2cc(C(F)(F)F)cc(C(F)(F)F)c2)[C@@H]1C` [Anacetrapib], in the test on HDL-C levels (printed as 'to'), the “raise of HDL-C levels” value was 130%. Also, the “decrease of LDL-C levels” value in the test with LDL-C levels (printed as 'to') is recorded as 40%.

Consider `COC(=O)Cn1nnc(N(CC2=C(c3cc(C(C)C)ccc3OC)CCC(C)(C)C2)Cc2cc(C(F)(F)F)cc(C(F)(F)F)c2)n1` [Compound 13], for which, at CETP, the IC50 was more than 50 µM.

For the compound `COc1ccc(C(C)C)cc1C1=C(CN(Cc2ccc(C(F)(F)F)cc2)c2nnn(C)n2)CC(C)(C)CC1` [Compound 43, N-((2-(5-Isopropyl-2-methoxyphenyl)-5,5-dimethylcyclohex-1-enyl)methyl)-2-methyl-N-(4-(trifluoromethyl)-benzyl)-2H-tetrazol-5-amine], on CETP, the “CETP inhibition (in words)” value is “no CETP inhibition” and the concentration for half-maximal inhibition (IC50) was more than 50 µM.

As for `CCC(CC)CC1(C(=O)Nc2ccccc2SC(=O)C(C)C)CCCCC1` [Dalcetrapib], the “elevation of HDL-C levels” value in the test with HDL-C levels is on record as “up to 30%”. Moreover, in the test with LDL-C levels, the “effect on LDL-C levels” value is listed as “minimal effect”.

For the compound `COc1ccc(C(C)C)cc1C1=C(CN(Cc2cc(C(F)(F)F)cc(C(F)(F)F)c2)c2nnn(CCS(C)(=O)=O)n2)CC(C)(C)CC1` [Compound 16, N-(3,5-Bis(trifluoromethyl)benzyl)-N-((2-(5-isopropyl-2-methoxyphenyl)-5,5-dimethylcyclohex-1-enyl)-methyl)-2-(2-(methylsulfonyl)ethyl)-2H-tetrazol-5-amine], on CETP, the 50% inhibitory concentration (IC50) stood at 1.2 ± 0.01 µM.

Consider `COc1ccc(C(C)C)cc1C1=C(CN(Cc2cc(C(F)(F)F)cc(C(F)(F)F)c2)c2nnn(CC(N)=O)n2)CC(C)(C)CC1` [Compound 21, 2-(5-((3,5-Bis(trifluoromethyl)benzyl)((2-(5-isopropyl-2-methoxyphenyl)-5,5-dimethylcyclohex-1-enyl)-methyl)amino)-2H-tetrazol-2-yl)acetamide], for which the 50% inhibitory concentration (IC50) on CETP stood at 20.06 ± 0.12 µM.

For `COc1ccc(C(C)C)cc1C1=C(CN(Cc2cc(C(F)(F)F)cc(C(F)(F)F)c2)C2CCN(CC(=O)O)CC2)CC(C)(C)CC1` [Compound 33, N-(3,5-Bis(trifluoromethyl)benzyl)-N-((2-(5-isopropyl-2-methoxyphenyl)-5,5-dimethylcyclohex-1-enyl)-methyl)piperidin-4-amine-1-acetic acid], at CETP, the half-inhibitory concentration (IC50) was more than 50 µM.

For the compound `COc1ccc(C(C)C)cc1C1=C(CN(Cc2cccc(C(F)(F)F)c2)c2nnn(C)n2)CC(C)(C)CC1` [Compound 41, N-((2-(5-Isopropyl-2-methoxyphenyl)-5,5-dimethylcyclohex-1-enyl)methyl)-2-methyl-N-(3-(trifluoromethyl)-benzyl)-2H-tetrazol-5-amine], the concentration for half-maximal inhibition (IC50) on CETP was found to be 10.05 ± 0.06 µM.

`COc1ccc(C(C)C)cc1C1=C(CN(Cc2cc(C(F)(F)F)cc(C(F)(F)F)c2)c2nnn(C)n2)CC(C)(C)CC1` [Compound 40, N-(3,5-Bis(trifluoromethyl)benzyl)-N-((2-(5-isopropyl-2-methoxyphenyl)-5,5-dimethylcyclohex-1-enyl)-methyl)-2-methyl-2H-tetrazol-5-amine]: the half-maximal inhibitory concentration (IC50) on CETP came out at 0.81 ± 0.03 µM.

Turning to `COc1ccc(C(C)C)cc1C1=C(CN(Cc2cc(C(F)(F)F)cc(C(F)(F)F)c2)c2nnn(CCO)n2)CC(C)(C)CC1` [Compound 19, N-(3,5-Bis(trifluoromethyl)benzyl)-N-((2-(5-isopropyl-2-methoxyphenyl)-5,5-dimethylcyclohex-1-enyl)-methyl)-2H-tetrazol-5-amine-2-ethyl alcohol], the IC50 at CETP was found to be 0.73 ± 0.09 µM.
